These molecules were tested on BJeLR fibroblasts viability, Alamar Blue fluorescence, 48 h (assay: BJeLR cell growth inhibition – Ras selective lethality, dry powder, set 4, dose response (AID 540318)).

`O=C(NCCNC(c1ccccc1)c1ccccc1)c1ccc([N+](=O)[O-])o1` and `O=C(c1cc([N+](=O)[O-])ccn1)N1CCN(C(c2ccccc2)c2ccccc2)CC1` are within 1.5-fold of each other in AC50: 25.9 µM for the first, 37.1 µM for the second.

`Cc1onc(C(=O)N2CCCN(C(c3ccccc3)c3ccccc3)CC2)c1[N+](=O)[O-]` and `Cc1onc(C(=O)N2CCN(C(c3ccccc3)c3ccccc3)CC2)c1[N+](=O)[O-]` are within 1.5-fold of each other in AC50: 3.45 µM for the first, 2.81 µM for the second.

First: Cc1onc(C(=O)N2CCN(C(c3ccccc3)c3ccc(Cl)cc3)CC2)c1[N+](=O)[O-] (configuration not stated)
Second: Cc1onc(C(=O)N2CCN(C(c3ccc(Cl)cc3)c3ccc(Cl)cc3)CC2)c1[N+](=O)[O-]
The AC50 of the first is 1.9-fold higher: 0.706 µM for the first, 0.364 µM for the second.

Compared with `Cc1onc(CC(=O)N2CCN(C(c3ccc(F)cc3)c3ccc(F)cc3)CC2)c1[N+](=O)[O-]`, `Cc1onc(C(=O)N2CCN(C(c3ccc(F)cc3)c3ccc(F)cc3)CC2)c1[N+](=O)[O-]` is 30-fold lower in AC50: 28 µM for the first, 0.934 µM for the second.

Compared with `O=C(c1ccc([N+](=O)[O-])o1)N1CCN(C(c2ccc(F)cc2)c2ccc(F)cc2)CC1`, `COc1ccc(C(c2ccc(OC)cc2)N2CCN(C(=O)c3noc(C)c3[N+](=O)[O-])CC2)cc1` is 8.1-fold lower in AC50: 34.9 µM for the first, 4.29 µM for the second.

First: COC(=O)c1ccc([C@@H]2c3[nH]c4ccccc4c3C[C@@H](C(=O)OC)N2C(=O)CCl)cc1
Second: CCOc1ccccc1-n1c(C(C)N2CCN(C(=O)COc3ccc(Cl)cc3)CC2)nc2ccccc2c1=O (configuration not stated)
The AC50 of the first is 1.8-fold lower: 0.79 µM for the first, 1.43 µM for the second.

— PubChem BioAssay AID540318 (Broad Institute, 2011)
